According to patent US10927106B2, “Benzothiazole derivatives as DYRK1 inhibitors” (PHARMASUM THERAPEUTICS AS, priority 2017, dated 2021):

Assays:
Test in all cases: Kinase profiling, 33P ATP filter binding assay
Format in all cases: biochemical
Details in all cases: 1 micromolar inhibitor concentration, read-out: percentage inhibition
MKK1 = MKK1 (Homo sapiens (Human), UniProt Q02750)
MKK2 = MKK2 (Homo sapiens (Human), UniProt P36507)
MKK6 = MKK6 (Homo sapiens (Human), UniProt P52564)
p38b MAPK = p38b MAPK (Homo sapiens (Human), UniProt Q15759)
PKBb = PKBb (Homo sapiens (Human), UniProt P31751)
PKA = PKA (Homo sapiens (Human), UniProt P17612)
PKCy = PKCy (Homo sapiens (Human), UniProt P05129)
STK33 = STK33 (Homo sapiens (Human), UniProt Q9BYT3)
PRAK = PRAK (Homo sapiens (Human), UniProt Q8IW41)
CAMKKb = CAMKKb (Homo sapiens (Human), UniProt Q96RR4)
DAPK1 = DAPK1 (Homo sapiens (Human), UniProt P53355)
CDK2-Cyclin A = CDK2-Cyclin A (Homo sapiens (Human), UniProt P24941)
BRSK1 = BRSK1 (Homo sapiens (Human), UniProt Q8TDC3)
BRSK1, sequence (Q8TDC3 whole entry, species assumed): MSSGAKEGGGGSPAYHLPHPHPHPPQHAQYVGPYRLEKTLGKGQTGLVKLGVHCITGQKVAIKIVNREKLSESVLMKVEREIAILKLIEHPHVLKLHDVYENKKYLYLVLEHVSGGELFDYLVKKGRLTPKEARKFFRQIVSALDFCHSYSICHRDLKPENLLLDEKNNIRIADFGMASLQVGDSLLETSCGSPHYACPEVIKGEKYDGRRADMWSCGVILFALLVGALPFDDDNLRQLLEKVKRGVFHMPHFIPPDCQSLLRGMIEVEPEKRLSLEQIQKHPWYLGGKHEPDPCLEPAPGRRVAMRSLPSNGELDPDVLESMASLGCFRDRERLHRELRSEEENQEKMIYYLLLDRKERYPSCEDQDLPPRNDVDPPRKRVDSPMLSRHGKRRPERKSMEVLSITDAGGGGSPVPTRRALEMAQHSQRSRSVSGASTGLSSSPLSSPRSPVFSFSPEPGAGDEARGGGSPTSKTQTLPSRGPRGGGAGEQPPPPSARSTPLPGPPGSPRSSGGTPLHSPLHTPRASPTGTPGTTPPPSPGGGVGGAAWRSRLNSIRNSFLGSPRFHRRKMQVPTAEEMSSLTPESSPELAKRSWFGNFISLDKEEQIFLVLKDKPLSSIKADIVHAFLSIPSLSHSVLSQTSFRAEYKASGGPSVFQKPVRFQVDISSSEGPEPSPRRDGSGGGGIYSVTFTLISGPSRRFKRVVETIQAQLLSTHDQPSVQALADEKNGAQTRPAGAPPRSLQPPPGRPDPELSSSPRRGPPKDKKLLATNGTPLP

MELK = MELK (Homo sapiens (Human), UniProt Q14680)
MELK, sequence (Q14680 whole entry, species assumed): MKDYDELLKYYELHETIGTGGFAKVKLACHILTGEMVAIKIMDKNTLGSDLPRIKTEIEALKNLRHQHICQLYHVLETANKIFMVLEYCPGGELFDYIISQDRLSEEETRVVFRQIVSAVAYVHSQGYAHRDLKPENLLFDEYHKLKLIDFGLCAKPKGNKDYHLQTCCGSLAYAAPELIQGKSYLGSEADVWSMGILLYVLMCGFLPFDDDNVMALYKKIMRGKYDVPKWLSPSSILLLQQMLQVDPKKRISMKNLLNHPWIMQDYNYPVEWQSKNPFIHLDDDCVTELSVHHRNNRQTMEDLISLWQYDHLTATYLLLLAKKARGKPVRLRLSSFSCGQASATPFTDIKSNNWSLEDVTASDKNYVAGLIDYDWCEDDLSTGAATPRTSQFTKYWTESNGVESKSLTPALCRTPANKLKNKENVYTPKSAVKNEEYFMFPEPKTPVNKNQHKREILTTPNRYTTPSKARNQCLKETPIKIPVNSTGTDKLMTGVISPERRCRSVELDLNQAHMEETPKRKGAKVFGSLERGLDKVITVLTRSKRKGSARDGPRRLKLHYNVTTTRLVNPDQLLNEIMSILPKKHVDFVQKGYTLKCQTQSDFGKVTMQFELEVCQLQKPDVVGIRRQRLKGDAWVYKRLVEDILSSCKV

CK2 = CK2 (Homo sapiens (Human), UniProt P68400)
TTBK1 = TTBK1 (Homo sapiens (Human), UniProt Q5TCY1)
IKKb = IKKb (Homo sapiens (Human), UniProt O14920)
IKKe = IKKe (Homo sapiens (Human), UniProt Q14164)
TBK1 = TBK1 (Homo sapiens (Human), UniProt Q9UHD2)
TBK1, sequence (Q9UHD2 whole entry, species assumed): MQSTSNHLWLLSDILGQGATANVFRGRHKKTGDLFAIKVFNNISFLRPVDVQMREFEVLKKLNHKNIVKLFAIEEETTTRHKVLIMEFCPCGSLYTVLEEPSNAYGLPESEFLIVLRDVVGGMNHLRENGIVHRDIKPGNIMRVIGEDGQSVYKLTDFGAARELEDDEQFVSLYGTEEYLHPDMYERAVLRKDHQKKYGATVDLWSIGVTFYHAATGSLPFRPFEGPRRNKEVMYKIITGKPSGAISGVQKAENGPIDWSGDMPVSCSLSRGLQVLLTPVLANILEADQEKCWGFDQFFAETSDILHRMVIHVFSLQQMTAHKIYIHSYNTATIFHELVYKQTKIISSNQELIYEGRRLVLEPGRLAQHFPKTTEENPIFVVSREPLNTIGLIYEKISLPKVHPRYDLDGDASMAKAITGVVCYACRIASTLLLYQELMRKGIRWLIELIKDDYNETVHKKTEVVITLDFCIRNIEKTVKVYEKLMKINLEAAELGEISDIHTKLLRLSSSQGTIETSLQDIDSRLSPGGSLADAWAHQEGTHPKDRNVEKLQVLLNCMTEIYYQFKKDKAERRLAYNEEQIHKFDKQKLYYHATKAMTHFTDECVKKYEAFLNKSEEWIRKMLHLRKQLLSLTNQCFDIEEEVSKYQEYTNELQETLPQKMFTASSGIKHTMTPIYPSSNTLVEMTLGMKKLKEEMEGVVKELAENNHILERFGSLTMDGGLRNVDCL

EIF2AK3 = EIF2AK3 (Homo sapiens (Human), UniProt Q9NZJ5)
HIPK1 = HIPK1 (Homo sapiens (Human), UniProt Q86Z02)
HIPK2 = HIPK2 (Homo sapiens (Human), UniProt Q9H2X6)
PAK2 = PAK2 (Homo sapiens (Human), UniProt Q13177)
PAK5 = PAK5 (Homo sapiens (Human), UniProt Q9P286)
MST2 = MST2 (Homo sapiens (Human), UniProt Q13188)
MST2, sequence (Q13188 whole entry, species assumed): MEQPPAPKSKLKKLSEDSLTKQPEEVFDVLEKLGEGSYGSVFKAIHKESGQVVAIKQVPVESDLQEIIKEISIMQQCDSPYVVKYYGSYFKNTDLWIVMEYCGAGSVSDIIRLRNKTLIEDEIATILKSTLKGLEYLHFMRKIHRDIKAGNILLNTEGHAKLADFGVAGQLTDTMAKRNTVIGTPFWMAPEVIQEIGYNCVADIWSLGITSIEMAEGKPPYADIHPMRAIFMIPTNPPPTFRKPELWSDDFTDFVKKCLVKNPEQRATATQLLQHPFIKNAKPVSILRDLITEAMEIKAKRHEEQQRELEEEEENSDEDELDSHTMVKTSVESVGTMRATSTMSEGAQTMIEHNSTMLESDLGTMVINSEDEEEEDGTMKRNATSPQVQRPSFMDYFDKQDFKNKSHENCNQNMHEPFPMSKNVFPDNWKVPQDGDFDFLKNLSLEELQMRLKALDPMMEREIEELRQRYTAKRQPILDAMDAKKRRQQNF

MST3 = MST3 (Homo sapiens (Human), UniProt Q9Y6E0)
MAP4K5 = MAP4K5 (Homo sapiens (Human), UniProt Q9Y4K4)
MLK3 = MLK3 (Homo sapiens (Human), UniProt Q16584)
TTK = TTK (Homo sapiens (Human), UniProt P33981)
WNK1 = WNK1 (Homo sapiens (Human), UniProt Q9H4A3)
ULK2 = ULK2 (Homo sapiens (Human), UniProt Q8IYT8)
CSK = CSK (Homo sapiens (Human), UniProt P41240)
BTK = BTK (Homo sapiens (Human), UniProt Q06187)
EPH-A4 = EPH-A4 (Homo sapiens (Human), UniProt P54764)
EPH-B3 = EPH-B3 (Homo sapiens (Human), UniProt P54753)
FGF-R1 = FGF-R1 (Homo sapiens (Human), UniProt P11362)
HER4 = HER4 (Homo sapiens (Human), UniProt Q15303)
IGF-1R = IGF-1R (Homo sapiens (Human), UniProt P08069)
IGF-1R, sequence (P08069 31-1367, species assumed): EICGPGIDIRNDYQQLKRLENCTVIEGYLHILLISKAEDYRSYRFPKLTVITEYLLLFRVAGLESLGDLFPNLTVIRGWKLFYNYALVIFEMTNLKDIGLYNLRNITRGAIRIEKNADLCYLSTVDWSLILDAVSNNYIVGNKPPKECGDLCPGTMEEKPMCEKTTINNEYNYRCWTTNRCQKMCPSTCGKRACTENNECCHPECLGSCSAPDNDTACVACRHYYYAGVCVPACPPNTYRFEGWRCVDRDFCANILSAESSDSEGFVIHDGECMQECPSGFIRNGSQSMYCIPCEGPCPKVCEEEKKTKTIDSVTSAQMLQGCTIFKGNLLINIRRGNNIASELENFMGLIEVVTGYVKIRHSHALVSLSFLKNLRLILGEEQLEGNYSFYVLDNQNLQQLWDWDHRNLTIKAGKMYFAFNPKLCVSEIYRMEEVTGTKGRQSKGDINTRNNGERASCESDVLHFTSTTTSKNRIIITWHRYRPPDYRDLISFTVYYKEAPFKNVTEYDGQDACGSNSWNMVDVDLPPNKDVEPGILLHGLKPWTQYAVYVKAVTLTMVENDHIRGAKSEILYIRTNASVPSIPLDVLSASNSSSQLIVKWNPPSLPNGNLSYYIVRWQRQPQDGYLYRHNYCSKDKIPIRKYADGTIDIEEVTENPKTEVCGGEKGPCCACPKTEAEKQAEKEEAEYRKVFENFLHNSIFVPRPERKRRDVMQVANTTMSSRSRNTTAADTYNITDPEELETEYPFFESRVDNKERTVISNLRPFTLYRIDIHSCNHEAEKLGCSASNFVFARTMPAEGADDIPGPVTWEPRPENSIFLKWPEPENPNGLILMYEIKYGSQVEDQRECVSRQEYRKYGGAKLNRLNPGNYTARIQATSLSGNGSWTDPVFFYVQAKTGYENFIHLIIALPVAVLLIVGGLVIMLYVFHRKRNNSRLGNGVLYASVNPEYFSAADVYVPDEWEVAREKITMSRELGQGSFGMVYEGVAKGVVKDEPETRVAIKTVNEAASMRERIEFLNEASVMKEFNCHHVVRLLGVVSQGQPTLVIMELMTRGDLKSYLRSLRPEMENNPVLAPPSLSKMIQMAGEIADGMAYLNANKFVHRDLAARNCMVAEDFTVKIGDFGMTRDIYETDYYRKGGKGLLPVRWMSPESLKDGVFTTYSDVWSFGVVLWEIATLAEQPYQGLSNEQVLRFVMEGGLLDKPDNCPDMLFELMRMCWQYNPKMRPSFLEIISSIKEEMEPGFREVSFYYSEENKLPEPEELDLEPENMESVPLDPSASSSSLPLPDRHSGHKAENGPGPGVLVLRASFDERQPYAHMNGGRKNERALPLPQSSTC

TrkA = TrkA (Homo sapiens (Human), UniProt P04629)
TrkA, sequence (P04629 33-796, species assumed): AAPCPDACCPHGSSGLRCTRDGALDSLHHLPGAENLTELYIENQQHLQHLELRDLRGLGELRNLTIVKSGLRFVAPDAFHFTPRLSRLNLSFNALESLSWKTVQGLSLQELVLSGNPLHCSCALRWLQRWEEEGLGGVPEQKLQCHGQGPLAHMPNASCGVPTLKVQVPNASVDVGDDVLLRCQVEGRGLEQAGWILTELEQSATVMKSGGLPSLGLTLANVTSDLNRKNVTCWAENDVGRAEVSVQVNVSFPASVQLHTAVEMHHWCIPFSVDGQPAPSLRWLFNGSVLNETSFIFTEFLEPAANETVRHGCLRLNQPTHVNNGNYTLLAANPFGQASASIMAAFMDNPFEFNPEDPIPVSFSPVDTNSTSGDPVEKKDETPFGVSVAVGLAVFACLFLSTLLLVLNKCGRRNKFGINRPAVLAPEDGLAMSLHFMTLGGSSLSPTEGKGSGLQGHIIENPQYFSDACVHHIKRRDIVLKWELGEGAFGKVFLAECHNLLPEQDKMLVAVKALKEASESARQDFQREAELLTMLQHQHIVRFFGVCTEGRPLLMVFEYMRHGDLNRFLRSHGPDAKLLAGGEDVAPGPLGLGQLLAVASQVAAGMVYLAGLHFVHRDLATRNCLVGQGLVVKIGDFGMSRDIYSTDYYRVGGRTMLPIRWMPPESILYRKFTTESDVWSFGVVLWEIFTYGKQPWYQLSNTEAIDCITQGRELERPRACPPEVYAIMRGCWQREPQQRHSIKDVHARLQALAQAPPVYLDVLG

DDR2 = DDR2 (Homo sapiens (Human), UniProt Q16832)
VEG-FR = VEG-FR (Homo sapiens (Human), UniProt P17948)
PDGFRA = PDGFRA (Homo sapiens (Human), UniProt P16234)

COc1ccc2sc(-c3cncc(NC(C)=O)c3)nc2c1 [4-93, N-(5-(5-Methoxybenzo[d]thiazol-2-yl)pyridin-3-yl)acetamide]
inhibition at 1 µM (MKK1): 0% | inhibition at 1 µM (MKK2): 25% | inhibition at 1 µM (MKK6): 0% | inhibition at 1 µM (p38b MAPK): 0% | inhibition at 1 µM (PKBb): 0% | inhibition at 1 µM (PKA): 12% | inhibition at 1 µM (PKCy): 0% | inhibition at 1 µM (STK33): 0% | inhibition at 1 µM (PRAK): 0% | inhibition at 1 µM (CAMKKb): 0% | inhibition at 1 µM (DAPK1): 0% | inhibition at 1 µM (CDK2-Cyclin A): 0% | inhibition at 1 µM (BRSK1): 0% | inhibition at 1 µM (MELK): 1% | inhibition at 1 µM (CK2): 0% | inhibition at 1 µM (TTBK1): 0% | inhibition at 1 µM (IKKb): 0% | inhibition at 1 µM (IKKe): 0% | inhibition at 1 µM (TBK1): 0% | inhibition at 1 µM (EIF2AK3): 0% | inhibition at 1 µM (HIPK1): 0% | inhibition at 1 µM (HIPK2): 10% | inhibition at 1 µM (PAK2): 0% | inhibition at 1 µM (PAK5): 0% | inhibition at 1 µM (MST2): 0% | inhibition at 1 µM (MST3): 0% | inhibition at 1 µM (MAP4K5): 18% | inhibition at 1 µM (MLK3): 0% | inhibition at 1 µM (TTK): 12% | inhibition at 1 µM (WNK1): 0% | inhibition at 1 µM (ULK2): 0% | inhibition at 1 µM (CSK): 0% | inhibition at 1 µM (BTK): 8% | inhibition at 1 µM (EPH-A4): 0% | inhibition at 1 µM (EPH-B3): 0% | inhibition at 1 µM (FGF-R1): 0% | inhibition at 1 µM (HER4): 0% | inhibition at 1 µM (IGF-1R): 0% | inhibition at 1 µM (TrkA): 0% | inhibition at 1 µM (DDR2): 2% | inhibition at 1 µM (VEG-FR): 0% | inhibition at 1 µM (PDGFRA): 0%

CS(=O)(=O)Nc1cncc(-c2nc3cc(O)ccc3s2)c1 [4-99, N-(5-(5-Hydroxybenzo[d]thiazol-2-yl)pyridin-3-yl)methanesulfonamide]
inhibition at 1 µM (MKK1): 0% | inhibition at 1 µM (MKK2): 0% | inhibition at 1 µM (MKK6): 0% | inhibition at 1 µM (p38b MAPK): 0% | inhibition at 1 µM (PKBb): 0% | inhibition at 1 µM (PKA): 3% | inhibition at 1 µM (PKCy): 0% | inhibition at 1 µM (STK33): 0% | inhibition at 1 µM (PRAK): 0% | inhibition at 1 µM (CAMKKb): 0% | inhibition at 1 µM (DAPK1): 0% | inhibition at 1 µM (CDK2-Cyclin A): 6% | inhibition at 1 µM (BRSK1): 0% | inhibition at 1 µM (MELK): 0% | inhibition at 1 µM (CK2): 6% | inhibition at 1 µM (TTBK1): 0% | inhibition at 1 µM (IKKb): 0% | inhibition at 1 µM (IKKe): 0% | inhibition at 1 µM (TBK1): 0% | inhibition at 1 µM (EIF2AK3): 0% | inhibition at 1 µM (HIPK1): 0% | inhibition at 1 µM (HIPK2): 0% | inhibition at 1 µM (PAK2): 0% | inhibition at 1 µM (PAK5): 0% | inhibition at 1 µM (MST2): 0% | inhibition at 1 µM (MST3): 0% | inhibition at 1 µM (MAP4K5): 0% | inhibition at 1 µM (MLK3): 0% | inhibition at 1 µM (TTK): 0% | inhibition at 1 µM (WNK1): 0% | inhibition at 1 µM (ULK2): 0% | inhibition at 1 µM (CSK): 0% | inhibition at 1 µM (BTK): 0% | inhibition at 1 µM (EPH-A4): 0% | inhibition at 1 µM (EPH-B3): 2% | inhibition at 1 µM (FGF-R1): 0% | inhibition at 1 µM (HER4): 0% | inhibition at 1 µM (IGF-1R): 0% | inhibition at 1 µM (TrkA): 0% | inhibition at 1 µM (DDR2): 0% | inhibition at 1 µM (VEG-FR): 0% | inhibition at 1 µM (PDGFRA): 0%
